In patent US11530226B2, “Azepane inhibitors of menin-MLL interaction” (Janssen Pharmaceutica NV, priority 2016, dated 2022) one finds IC50 and melting point data, which are given here for ten compounds.

Like-named read-outs stand apart in the source and are kept apart here.

One data set has as its system MOLM14 cells (MLL-AF9). Kind of data set: Proliferation assay (spheroid-like growth, 8 d, live-cell imaging), MOLM14. The data set is classed as cell-based, human. The note with it: Homo sapiens, MOLM-14, 192 h, absolute IC50 from AUC of confluence, read-out: (3) Spheroid assay MOLM14 (IC50 (μM)). As to the method:
The anti-proliferative effect of menin/MLL protein/protein interaction inhibitor test compounds was assessed in human leukemia cell lines. The cell lines MV-4-1 1 and MOLM14 harbor MEL translocations and express the MEL fusion proteins MLL-AF4 and MLL-AF9, respectively, as well as the wildtype protein from the second allele. […] K562 was used as a control cell line containing two MLL wildtype alleles in order to exclude compounds that display general cytotoxic effects.
MV-4-1 1 and MOLM14 were cultured in RPMI-1640 (Sigma Aldrich) supplemented with 10% fetal bovine serum (HyClone), 2 mM L-glutamine (Sigma Aldrich) and 50 μg/ml gentamycin (Gibco). K562 were propagated in RPMI-1640 (Sigma Aldrich) supplemented with 20% fetal bovine serum (HyClone), 2 mM L-glutamine (Sigma Aldrich) and 50 μg/ml gentamycin (Gibco).
In order to assess the anti-proliferative effects, 1,500 MV-4-1 1, 300 MOLM14 or 750 K562 cells were seeded in 200 μl media per well in 96-well round bottom, ultra-low attachment plates (Costar, catalogue number 7007). Cell seeding numbers were chosen based on growth curves to ensure linear growth throughout the experiment. Test compounds were added at different concentrations and the DMSO content was normalized to 0.3%>. Cells were incubated for 8d at 37° C. and 5% C02. Spheroid like growth was monitored in real-time by live-cell imaging (IncuCyteZOOM, Essenbio, 4× objective) acquiring one image every four hours for 8d. Confluence (%) as a measure of spheroid size was determined using an integrated analysis tool.
In order to determine the cumulative effect of the test compounds over time, the area under the curve (AUC) in a plot of confluence against time was calculated. Confluence at the beginning of the experiment (t=0) was used as baseline for the AUC calculation.
Absolute IC50 values were calculated according to the following procedure: % Control=(AUC sample/AUC control)*100 AUC control=mean AUC of control values(cells without compound/DMSO as vehicle control)
A non-linear curve fit was applied using the least squares (ordinary) fit method to the plot of % control versus compound concentration. Based on this, the absolute IC50 value (half maximal inhibitory concentration of the test compound causing an anti-proliferative effect of 50% relative to the vehicle control) was calculated.

The next data set has as its system MV-4-1 1 cells (MLL-AF4). Kind of data set: Proliferation assay (spheroid-like growth, 8 d, live-cell imaging), MV-4-11. The data set is classed as cell-based, human. The note with it: MV-4-11 cells, absolute IC50 from AUC of confluence, read-out: (3) Spheroid assay MV-4-11 (IC50 (μM)). In short, it runs like this:
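Cells seeded in ultra-low attachment wells (1,500 MV-4-11, 300 MOLM14, 750 K562) with compound, 0.3% DMSO, grown 8 d at 37° C. Confluence imaged every four hours; AUC of confluence versus time, relative to vehicle, fitted for absolute IC50.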

For data set [1], the target named is T1, terbium chelate-labeled menin / FITC-MBM1 peptide (Menin/MLL) (Homo sapiens, UniProt O00255, T541A).
T1 construct: Menin (a. a. l-610-6×his tag) was labeled with terbium cryptate as follows
T1 sequence (O00255 with tags, fused parts or gaps T541A): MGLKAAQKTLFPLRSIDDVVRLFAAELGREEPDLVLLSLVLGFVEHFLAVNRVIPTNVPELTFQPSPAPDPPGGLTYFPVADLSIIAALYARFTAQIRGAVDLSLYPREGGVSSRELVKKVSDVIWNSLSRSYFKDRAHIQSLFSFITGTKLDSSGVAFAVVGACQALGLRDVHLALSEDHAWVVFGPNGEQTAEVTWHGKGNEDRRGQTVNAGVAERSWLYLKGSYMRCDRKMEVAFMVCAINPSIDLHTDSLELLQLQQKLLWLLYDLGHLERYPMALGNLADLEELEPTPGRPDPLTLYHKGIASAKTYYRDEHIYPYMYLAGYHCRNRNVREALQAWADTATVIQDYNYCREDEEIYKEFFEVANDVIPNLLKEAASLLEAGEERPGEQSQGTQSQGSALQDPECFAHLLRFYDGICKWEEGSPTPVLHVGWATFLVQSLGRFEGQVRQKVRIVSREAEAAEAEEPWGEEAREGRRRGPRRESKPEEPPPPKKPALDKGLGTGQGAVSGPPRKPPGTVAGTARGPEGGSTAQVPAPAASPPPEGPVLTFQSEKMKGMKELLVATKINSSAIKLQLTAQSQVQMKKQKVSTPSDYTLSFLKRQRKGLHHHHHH
Kind of data set: Menin/MLL homogenous time-resolved fluorescence (HTRF) assay. The data set is classed as binding. The note with it: read-out: (2) Menin HTRF assay (IC50 (nM)). In a few lines:
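Terbium cryptate-labeled menin (aa 1-610, 6×His), 100 pM, preincubated 5 min with compound, then 75 nM FITC-MBM1 peptide added for 15 min at ambient temperature. Buffer: 40 mM Tris pH 7.5, 50 mM NaCl, 1 mM DTT, 0.05% Pluronic F-127, 0.5% DMSO. HTRF 520/490 ratio; 11-point threefold titration from 25 μM, IC50 from % inhibition curve.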
For orientation: In TR-FRET formats the signal depends on donor and acceptor labels being close together.

Data set [2] addresses T2, menin / FITC-MBM1 peptide (Menin/MLL) (Homo sapiens, UniProt O00255).
T2 sequence (O00255 1-610): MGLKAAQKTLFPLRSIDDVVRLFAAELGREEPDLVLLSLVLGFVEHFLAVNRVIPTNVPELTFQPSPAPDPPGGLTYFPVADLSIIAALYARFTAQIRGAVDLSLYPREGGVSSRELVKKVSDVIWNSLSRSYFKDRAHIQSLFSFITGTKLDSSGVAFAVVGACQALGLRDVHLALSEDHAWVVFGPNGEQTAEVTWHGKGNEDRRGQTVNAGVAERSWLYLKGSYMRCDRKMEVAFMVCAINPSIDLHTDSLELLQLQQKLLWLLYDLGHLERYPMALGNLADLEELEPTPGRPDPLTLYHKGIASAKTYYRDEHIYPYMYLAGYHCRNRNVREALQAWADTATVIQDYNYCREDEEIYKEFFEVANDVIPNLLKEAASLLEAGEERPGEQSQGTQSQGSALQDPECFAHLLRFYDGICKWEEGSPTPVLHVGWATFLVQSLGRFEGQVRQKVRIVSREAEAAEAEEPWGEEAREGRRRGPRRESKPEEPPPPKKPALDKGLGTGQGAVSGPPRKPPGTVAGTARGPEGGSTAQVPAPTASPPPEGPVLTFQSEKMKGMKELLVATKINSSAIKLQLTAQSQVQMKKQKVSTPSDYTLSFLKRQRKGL
Kind of data set: Menin/MLL fluorescence polarization (FP) assay. Conditions: read-out: (1) Menin FP assay (IC50 (μM)). The data set is classed as binding. As to the method:
Pharmacological Part 1) Menin/MLL Fluorescence Polarization Assay
To a non-surface binding, black 384-well microtiter plate was added 50 nL 160× test compound in DMSO and 4 μL 2× menin in assay buffer (40 mM TrisHCl, pH 7.5, 50 mM NaCl, 1 mM DTT and 0.001% Tween 20). After incubation of test compound and menin for 10 min at ambient temperature, 4 μL 2×FITC-MBM1 peptide (FITC-β-alanine-SARWRPPARPGT-NH2) in assay buffer was added, the microtiter plate centrifuged at 1000 rpm for 1 min and the assay mixtures incubated for 15 min at ambient temperature. The relative amount of menin -FITC-MBM1 complex present in an assay mixture is determined by measuring the fluorescence polarization (FP) of the FITC label with a BMG Pherastar plate reader (ex. 485 nm/em. 520 nm) at ambient temperature. The final concentrations of reagents in the binding assay are 100 nM menin, 5 nM FITC-MBM1 peptide and 0.625%>DMSO in assay buffer. Dose-response titrations of test compounds are conducted using an 11 point, three-fold serial dilution scheme, starting at 31 μM.
Compound potencies were determined by first calculating % inhibition at each compound concentration according to equation 1: % inhibition=((HC−LC)−(FPcompound−LC))/(HC−LC))*100 (Eqn 1)
Where LC and HC are the FP values of the assay in the presence or absence of a saturating concentration of a compound that competes with FITC-MBM1 for binding to menin, and FP^compound is the measured FP value in the presence of the test compound. HC and LC FP values represent an average of at least 16 replicates per plate.
Where Bottom and Top are the lower and upper asymptotes of the dose-response curve, respectively, IC50 is the concentration of compound that yields 50% inhibition of signal and h is the Hill coefficient.
(In general: Fluorescence polarisation rises when a labelled molecule tumbles more slowly, as on binding a larger partner.)

For orientation: IC50 means the concentration at which inhibition is half-maximal. As for `COc1ccccc1CNC1CCCN(c2ncnc3sc(CC(F)(F)F)cc23)CC1` (stereo not shown) [Compound 22], the IC50 is 9.9 µM with MOLM14 cells (MLL-AF9); 2.5 µM with MV-4-1 1 cells (MLL-AF4) (Homo sapiens, MV4-11, 192 h); 78 nM in data set [1].
For orientation: melting point means the temperature of the solid-liquid transition. Regarding `CC1CN(c2ncnc3sc(CC(F)(F)F)cc23)CCCC1NCc1ccccc1` (stereo not shown) [Compound 67B], the melting point is 180 °C. Also, the IC50 in the data set on MV-4-1 1 cells (MLL-AF4) amounted to 3.7 µM. Also, in data set [1], the IC50 amounted to 348 nM.
In the case of `FC(F)CN[C@@H]1CCCN(c2ncnc3sc(CC(F)(F)F)cc23)CC1` [Compound 5a], the IC50 came to 8290 nM in data set [1] and 6.15 µM in data set [2].
For the compound `FC(F)CN[C@@H]1CCCN(c2ncnc3sc(CC(F)(F)F)cc23)CC1` [Compound 5], the results for the IC50 in data set [1] and in data set [2] were 9530 nM and 6.36 µM, respectively.
With `OCc1ccccc1CNC1CCCN(c2ncnc3sc(CC(F)(F)F)cc23)CC1` (stereo not shown) [Compound 21], the IC50 worked out at 6.1 µM in the data set on MOLM14 cells (MLL-AF9); 1 µM in the data set with MV-4-1 1 cells (MLL-AF4) (Homo sapiens, MV4-11, 192 h); 97 nM in data set [1].
For `Cc1cccc(CNC2CCCN(c3ncnc4sc(CC(F)(F)F)cc34)CC2)c1` (stereo not shown) [Compound 23] the same measures were 9.4 µM, 3.1 µM and 150 nM.
Take `Cc1ccc(CNC2CCCN(c3ncnc4sc(CC(F)(F)F)cc34)CC2)cc1` (stereo not shown) [Compound 16]: the IC50 in the data set with MOLM14 cells (MLL-AF9) was 4.9 µM; in the data set with MV-4-1 1 cells (MLL-AF4) (Homo sapiens, MV4-11, 192 h), 0.8 µM; in data set [1] it was 21 nM.
Regarding `CC1CN(c2ncnc3sc(CC(F)(F)F)cc23)CCCC1NCc1ccccc1` (stereo not shown) [Compound 67A], the melting point is 164 °C. The half-inhibitory concentration (IC50) with MV-4-1 1 cells (MLL-AF4) (Homo sapiens, MV4-11, 192 h) was determined as 3.6 µM. Besides, the IC50 in data set [1] amounted to 396 nM.
As to `O=C(NC1CCCN(c2ncnc3sc(CC(F)(F)F)cc23)CC1)C1CC2(CC2)CN1` (stereo not shown) [Compound 10B], the IC50 worked out at 14.2 µM in the data set on MOLM14 cells (MLL-AF9); 5 µM in the data set on MV-4-1 1 cells (MLL-AF4) (Homo sapiens, MV4-11, 192 h); 1320 nM in data set [1].
With `CC1CCN(c2ncnc3sc(CC(F)(F)F)cc23)CCC1NCc1ccccc1` (stereo not shown) [Compound 68C], the IC50 in the data set with MOLM14 cells (MLL-AF9) came to 7.7 µM; in the data set with MV-4-1 1 cells (MLL-AF4) (Homo sapiens, MV4-11, 192 h) it was 4.4 µM; in data set [1] it was 282 nM.
